Laboratory results published in ChEMBL document CHEMBL5576150, “Synthesis and Biological Evaluation of Pyrazole-Pyrimidones as a New Class of Correctors of the Cystic Fibrosis Transmembrane Conductance Regulator (CFTR)” (J Med Chem, 2024).
The source made the active and inactive calls. The rule behind the calls is not given here.

Key:
[1] = tested on: Cystic fibrosis transmembrane conductance regulator (Homo sapiens), P13569 [F508del]; test: (§1) Corrector activity at 3xHA-tagged full-length human CFTR F508del mutant expressed in human CFBE41o- cells assessed as restoration of plasma membrane density of channel incubated for 24 hrs in presence of VX-809/N-(5-(4-fluorobenzyl)thiazol-2-yl)-2,5-dimethylfuran-3-carboxamide by ELISA; assay type: cell membranes; details: filed as activator, dose 10.0 µM
[2] = target: Cystic fibrosis transmembrane conductance regulator (Homo sapiens, UniProt P13569, F508DEL); test: as §1; assay type: cell membranes
[3] = tested on: Cystic fibrosis transmembrane conductance regulator (Homo sapiens), P13569 [F508del]; test: Corrector activity at 3xHA-tagged full-length human CFTR F508del mutant expressed in human CFBE41o- cells assessed as functional rescue of channel by measuring anion transport measured after 24 hrs in presence of VX-809/N-(5-(4-fluorobenzyl)thiazol-2-yl)-2,5-dimethylfuran-3-carboxamide by halide-sensitive YFP quenching assay relative to combination of VX-809/N-(5-(4-fluorobenzyl)thiazol-2-yl)-2,5-dimethylfuran-3-carboxamide; assay type: cell-based; details: filed as activator
[4] = tested on: Cystic fibrosis transmembrane conductance regulator (Homo sapiens), P13569 [F508del]; test: (§2) Corrector activity at 3xHA-tagged full-length human CFTR F508del mutant expressed in human CFBE41o- cells assessed as rescue of forskolin/VX-770-induced transepithelial short-circuit current measured after 24 hrs in presence of VX-809/N-(5-(4-fluorobenzyl)thiazol-2-yl)-2,5-dimethylfuran-3-carboxamide by electrophysiological method relative to wild-type CFTR activity; assay type: cell-based; details: filed as activator
[5] = tested on: Cystic fibrosis transmembrane conductance regulator (Homo sapiens), P13569 [F508del]; test: Corrector activity at 3xHA-tagged full-length human CFTR F508del mutant expressed in human CFBE41o- cells assessed as fractional plasma membrane density at 10 uM in presence of VX-809/N-(5-(4-fluorobenzyl)thiazol-2-yl)-2,5-dimethylfuran-3-carboxamide relative to forskoli-stimulated wild-type CFTR expressed in human CFBE41o- cells; assay type: cell membranes; details: filed as activator
[6] = tested on: Cystic fibrosis transmembrane conductance regulator (Homo sapiens), P13569 [F508del]; test: as §2, with “[…]” for “rescue of”, “at 10 uM” for “measured after 24 hrs”, “control” for “wild-type CFTR activity”; assay type: cell-based; design: scale not given: the % may be the effect or the level left; details: filed as activator
[7] = tested on: Cystic fibrosis transmembrane conductance regulator (Homo sapiens), P13569 [F508del]; test: Corrector activity at CFTR F508del mutant in patient-derived human HBE cells assessed as forskolin/VX-770-induced transepithelial short-circuit current in presence of VX-809/N-(5-(4-fluorobenzyl)thiazol-2-yl)-2,5-dimethylfuran-3-carboxamide by electrophysiological method (reference value: 16 %); assay type: cell-based; details: filed as activator
[8] = tested on: Cystic fibrosis transmembrane conductance regulator (Homo sapiens), P13569 [S13F]; test: Corrector activity at 3xHA-tagged full-length human CFTR S13F mutant expressed in human CFBE41o- cells assessed as restoration of plasma membrane density of channel in presence of VX-809/N-(5-(4-fluorobenzyl)thiazol-2-yl)-2,5-dimethylfuran-3-carboxamide by ELISA; assay type: cell membranes; details: filed as activator
[9] = tested on: Cystic fibrosis transmembrane conductance regulator (Homo sapiens), P13569 [S492F]; test: Corrector activity at 3xHA-tagged full-length human CFTR S492F mutant expressed in human CFBE41o- cells assessed as restoration of plasma membrane density of channel in presence of VX-809/N-(5-(4-fluorobenzyl)thiazol-2-yl)-2,5-dimethylfuran-3-carboxamide by ELISA; assay type: cell membranes; details: filed as activator
[10] = tested on: Cystic fibrosis transmembrane conductance regulator (Homo sapiens), P13569 [M1101K]; test: Corrector activity at 3xHA-tagged full-length human CFTR M1101K mutant expressed in human CFBE41o- cells assessed as restoration of plasma membrane density of channel in presence of VX-809/N-(5-(4-fluorobenzyl)thiazol-2-yl)-2,5-dimethylfuran-3-carboxamide by ELISA relative to wild-type CFTR level; assay type: cell membranes; details: filed as activator
[11] = tested on: Cystic fibrosis transmembrane conductance regulator (Homo sapiens), P13569 [N1303K]; test: Corrector activity at 3xHA-tagged full-length human CFTR N1303K mutant expressed in human CFBE41o- cells assessed as restoration of plasma membrane density of channel in presence of VX-809/N-(5-(4-fluorobenzyl)thiazol-2-yl)-2,5-dimethylfuran-3-carboxamide by ELISA relative to wild-type CFTR level; assay type: cell membranes; details: filed as activator
[12] = tested on: Cystic fibrosis transmembrane conductance regulator (Homo sapiens), P13569 [R560T]; test: Corrector activity at 3xHA-tagged full-length human CFTR R560T mutant expressed in human CFBE41o- cells assessed as restoration of plasma membrane density of channel in presence of VX-809/N-(5-(4-fluorobenzyl)thiazol-2-yl)-2,5-dimethylfuran-3-carboxamide by ELISA; assay type: cell membranes
[13] = tested on: Cystic fibrosis transmembrane conductance regulator (Homo sapiens), P13569 [S13F]; test: Corrector activity at 3xHA-tagged full-length human CFTR S13F mutant expressed in human CFBE41o- cells assessed as restoration of plasma membrane density of channel in presence of N-(5-(4-fluorobenzyl)thiazol-2-yl)-2,5-dimethylfuran-3-carboxamide incubated for 24 hrs by ELISA; assay type: cell membranes; details: filed as activator
[14] = tested on: Cystic fibrosis transmembrane conductance regulator (Homo sapiens), P13569 [S13F]; test: Corrector activity at 3xHA-tagged full-length human CFTR S13F mutant expressed in human CFBE41o- cells assessed as restoration of plasma membrane density of channel in presence of VX-809 incubated for 24 hrs by ELISA; assay type: cell membranes; details: filed as activator
[15] = tested on: Cystic fibrosis transmembrane conductance regulator (Homo sapiens), P13569 [S13F]; test: Corrector activity at 3xHA-tagged full-length human CFTR S13F mutant expressed in human CFBE41o- cells assessed as restoration of plasma membrane density of channel in presence of VX-661 incubated for 24 hrs by ELISA; assay type: cell membranes; details: filed as activator
[16] = tested on: Cystic fibrosis transmembrane conductance regulator (Homo sapiens), P13569 [S492F]; test: Corrector activity at 3xHA-tagged full-length human CFTR S492F mutant expressed in human CFBE41o- cells assessed as restoration of plasma membrane density of channel in presence of N-(5-(4-fluorobenzyl)thiazol-2-yl)-2,5-dimethylfuran-3-carboxamide incubated for 24 hrs by ELISA; assay type: cell membranes; details: filed as activator
[17] = tested on: Cystic fibrosis transmembrane conductance regulator (Homo sapiens), P13569 [S492F]; test: Corrector activity at 3xHA-tagged full-length human CFTR S492F mutant expressed in human CFBE41o- cells assessed as restoration of plasma membrane density of channel in presence of VX-809 incubated for 24 hrs by ELISA; assay type: cell membranes; details: filed as activator
[18] = tested on: Cystic fibrosis transmembrane conductance regulator (Homo sapiens), P13569 [S492F]; test: Corrector activity at 3xHA-tagged full-length human CFTR S492F mutant expressed in human CFBE41o- cells assessed as restoration of plasma membrane density of channel in presence of VX-661 incubated for 24 hrs by ELISA; assay type: cell membranes; details: filed as activator
[19] = tested on: Cystic fibrosis transmembrane conductance regulator (Homo sapiens), P13569 [F508del]; test: Corrector activity at 3xHA-tagged full-length human CFTR F508del mutant expressed in human CFBE41o- cells assessed as restoration of plasma membrane density of channel in presence of N-(5-(4-fluorobenzyl)thiazol-2-yl)-2,5-dimethylfuran-3-carboxamide incubated for 24 hrs by ELISA; assay type: cell membranes; details: filed as activator
[20] = tested on: Cystic fibrosis transmembrane conductance regulator (Homo sapiens), P13569 [F508del]; test: Corrector activity at 3xHA-tagged full-length human CFTR F508del mutant expressed in human CFBE41o- cells assessed as restoration of plasma membrane density of channel incubated for 24 hrs in presence of VX-809 by ELISA; assay type: cell membranes; details: filed as activator
[21] = tested on: Cystic fibrosis transmembrane conductance regulator (Homo sapiens), P13569 [F508del]; test: Corrector activity at 3xHA-tagged full-length human CFTR F508del mutant expressed in human CFBE41o- cells assessed as restoration of plasma membrane density of channel incubated for 24 hrs in presence of VX-661 by ELISA; assay type: cell membranes; details: filed as activator
[22] = tested on: Cystic fibrosis transmembrane conductance regulator (Homo sapiens), P13569 [S13F]; test: Corrector activity at 3xHA-tagged full-length human CFTR S13F mutant expressed in human CFBE41o- cells assessed as restoration of plasma membrane density of channel incubated for 24 hrs in presence of VX-445 by ELISA; assay type: cell membranes
[23] = tested on: Cystic fibrosis transmembrane conductance regulator (Homo sapiens), P13569 [S492F]; test: Corrector activity at 3xHA-tagged full-length human CFTR S492F mutant expressed in human CFBE41o- cells assessed as restoration of plasma membrane density of channel incubated for 24 hrs in presence of VX-445 by ELISA; assay type: cell membranes
[24] = tested on: Cystic fibrosis transmembrane conductance regulator (Homo sapiens), P13569 [F508del]; test: Corrector activity at 3xHA-tagged full-length human CFTR F508del mutant expressed in human CFBE41o- cells assessed as restoration of plasma membrane density of channel incubated for 24 hrs in presence of VX-445 by ELISA; assay type: cell membranes
[25] = tested on: Cystic fibrosis transmembrane conductance regulator (Homo sapiens), P13569 [S13F]; test: Corrector activity at 3xHA-tagged full-length human CFTR S13F mutant expressed in human CFBE41o- cells assessed as restoration of plasma membrane density of channel at 10 uM incubated for 24 hrs in presence of VX-445 by ELISA; assay type: cell membranes
[26] = tested on: Cystic fibrosis transmembrane conductance regulator (Homo sapiens), P13569 [S492F]; test: Corrector activity at 3xHA-tagged full-length human CFTR S492F mutant expressed in human CFBE41o- cells assessed as restoration of plasma membrane density of channel at 10 uM incubated for 24 hrs in presence of VX-661/VX-445 by ELISA; assay type: cell membranes; details: filed as activator
[27] = tested on: Cystic fibrosis transmembrane conductance regulator (Homo sapiens), P13569 [F508del]; test: Corrector activity at 3xHA-tagged full-length human CFTR F508del mutant expressed in human CFBE41o- cells assessed as restoration of plasma membrane density of channel at 10 uM incubated for 24 hrs in presence of VX-661/VX-445 by ELISA; assay type: cell membranes; details: filed as activator
[28] = tested on: Cystic fibrosis transmembrane conductance regulator (Homo sapiens), P13569 [S492F]; test: as §2, with “S492F” for “F508del”, “current at 10 uM” for “current”, “method” for “method relative to wild-type CFTR activity”; assay type: cell-based; details: filed as activator
[29] = tested on: Cystic fibrosis transmembrane conductance regulator (Homo sapiens), P13569 [F508del]; test: Inhibition of activity of 3xHA-tagged full-length human CFTR F508del mutant expressed in human CFBE41o- cells in presence of VX-809/N-(5-(4-fluorobenzyl)thiazol-2-yl)-2,5-dimethylfuran-3-carboxamide; assay type: cell-based

Cystic fibrosis transmembrane conductance regulator (Homo sapiens), P13569 [F508del], sequence (P13569 as listed by the source): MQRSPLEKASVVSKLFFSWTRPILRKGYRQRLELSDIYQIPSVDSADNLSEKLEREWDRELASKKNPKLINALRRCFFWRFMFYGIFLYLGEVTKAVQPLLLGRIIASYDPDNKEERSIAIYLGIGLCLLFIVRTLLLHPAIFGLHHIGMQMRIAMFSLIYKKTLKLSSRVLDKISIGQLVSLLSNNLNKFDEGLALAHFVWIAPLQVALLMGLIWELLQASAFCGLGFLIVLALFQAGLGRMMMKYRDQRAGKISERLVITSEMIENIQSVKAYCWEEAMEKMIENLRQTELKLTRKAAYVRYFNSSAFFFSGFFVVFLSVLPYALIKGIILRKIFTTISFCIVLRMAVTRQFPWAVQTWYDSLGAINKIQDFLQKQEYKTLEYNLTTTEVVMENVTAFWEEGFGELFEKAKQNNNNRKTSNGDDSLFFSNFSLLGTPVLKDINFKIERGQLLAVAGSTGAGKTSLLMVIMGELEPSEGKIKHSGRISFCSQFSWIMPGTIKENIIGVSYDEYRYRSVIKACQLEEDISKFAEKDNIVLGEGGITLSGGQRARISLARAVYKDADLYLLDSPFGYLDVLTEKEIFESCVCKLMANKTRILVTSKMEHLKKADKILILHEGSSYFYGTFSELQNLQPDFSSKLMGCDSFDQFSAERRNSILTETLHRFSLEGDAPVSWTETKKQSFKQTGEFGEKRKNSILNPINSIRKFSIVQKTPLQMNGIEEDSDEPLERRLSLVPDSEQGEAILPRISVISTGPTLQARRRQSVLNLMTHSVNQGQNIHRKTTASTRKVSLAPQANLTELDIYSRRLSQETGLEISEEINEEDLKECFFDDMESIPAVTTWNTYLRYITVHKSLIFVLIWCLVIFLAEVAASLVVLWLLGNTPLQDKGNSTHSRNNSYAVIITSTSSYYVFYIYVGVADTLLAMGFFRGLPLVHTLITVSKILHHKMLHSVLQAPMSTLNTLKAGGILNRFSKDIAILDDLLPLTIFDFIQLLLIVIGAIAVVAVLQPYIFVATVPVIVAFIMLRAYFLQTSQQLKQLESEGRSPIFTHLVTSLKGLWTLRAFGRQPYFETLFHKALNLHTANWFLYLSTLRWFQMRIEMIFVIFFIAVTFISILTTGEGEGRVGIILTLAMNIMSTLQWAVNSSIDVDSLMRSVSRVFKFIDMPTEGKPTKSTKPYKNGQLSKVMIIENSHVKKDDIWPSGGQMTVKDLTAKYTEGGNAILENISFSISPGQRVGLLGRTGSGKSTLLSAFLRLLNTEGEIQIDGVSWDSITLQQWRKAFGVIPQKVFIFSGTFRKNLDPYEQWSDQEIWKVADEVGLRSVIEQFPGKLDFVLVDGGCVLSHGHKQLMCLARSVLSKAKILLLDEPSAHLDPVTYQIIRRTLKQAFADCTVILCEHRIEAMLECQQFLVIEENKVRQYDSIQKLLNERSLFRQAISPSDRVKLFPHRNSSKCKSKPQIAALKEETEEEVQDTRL
Cystic fibrosis transmembrane conductance regulator (Homo sapiens), P13569 [S13F], sequence (P13569 whole entry S13F): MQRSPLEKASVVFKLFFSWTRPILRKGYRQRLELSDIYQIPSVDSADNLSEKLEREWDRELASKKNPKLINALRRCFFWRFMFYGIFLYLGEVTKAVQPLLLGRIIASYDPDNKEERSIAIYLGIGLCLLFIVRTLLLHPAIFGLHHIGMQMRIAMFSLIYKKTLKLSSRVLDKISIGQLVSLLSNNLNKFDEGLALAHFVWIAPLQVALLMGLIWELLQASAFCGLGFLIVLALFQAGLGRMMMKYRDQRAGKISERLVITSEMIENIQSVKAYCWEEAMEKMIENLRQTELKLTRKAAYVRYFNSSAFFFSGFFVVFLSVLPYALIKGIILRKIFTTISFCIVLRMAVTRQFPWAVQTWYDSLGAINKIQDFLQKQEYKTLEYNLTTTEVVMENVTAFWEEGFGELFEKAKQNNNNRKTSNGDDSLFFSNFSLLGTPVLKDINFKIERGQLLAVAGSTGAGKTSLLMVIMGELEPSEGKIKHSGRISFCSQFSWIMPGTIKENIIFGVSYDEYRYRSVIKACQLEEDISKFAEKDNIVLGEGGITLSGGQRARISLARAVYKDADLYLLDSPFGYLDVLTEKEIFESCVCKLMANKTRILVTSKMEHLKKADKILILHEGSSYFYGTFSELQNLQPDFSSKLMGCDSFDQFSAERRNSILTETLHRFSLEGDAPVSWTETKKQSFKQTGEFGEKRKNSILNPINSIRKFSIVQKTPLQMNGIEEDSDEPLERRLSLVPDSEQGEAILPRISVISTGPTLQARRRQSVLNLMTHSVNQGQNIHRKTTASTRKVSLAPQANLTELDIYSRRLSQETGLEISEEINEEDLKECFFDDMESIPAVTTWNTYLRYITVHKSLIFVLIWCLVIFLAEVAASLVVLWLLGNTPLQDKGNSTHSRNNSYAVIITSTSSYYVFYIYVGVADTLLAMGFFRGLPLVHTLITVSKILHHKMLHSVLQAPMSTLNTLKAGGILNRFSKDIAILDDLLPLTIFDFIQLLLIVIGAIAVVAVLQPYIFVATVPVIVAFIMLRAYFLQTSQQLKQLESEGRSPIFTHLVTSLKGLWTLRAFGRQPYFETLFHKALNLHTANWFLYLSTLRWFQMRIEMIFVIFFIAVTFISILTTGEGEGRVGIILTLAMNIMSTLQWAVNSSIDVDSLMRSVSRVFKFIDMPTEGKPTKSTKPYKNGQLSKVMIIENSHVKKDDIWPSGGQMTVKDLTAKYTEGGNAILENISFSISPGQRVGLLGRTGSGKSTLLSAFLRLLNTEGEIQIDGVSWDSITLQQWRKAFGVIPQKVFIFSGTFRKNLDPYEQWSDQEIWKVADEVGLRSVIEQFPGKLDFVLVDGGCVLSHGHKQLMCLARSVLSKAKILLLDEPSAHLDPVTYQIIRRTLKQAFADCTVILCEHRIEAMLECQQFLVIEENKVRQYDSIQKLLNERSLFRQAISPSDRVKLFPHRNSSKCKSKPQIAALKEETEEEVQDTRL
Cystic fibrosis transmembrane conductance regulator (Homo sapiens), P13569 [S492F], sequence (P13569 whole entry S492F): as the sequence (P13569 whole entry S13F) above, with F13S, S492F counted along it
Cystic fibrosis transmembrane conductance regulator (Homo sapiens), P13569 [N1303K], sequence (P13569 whole entry N1303K): as the sequence (P13569 whole entry S13F) above, with F13S, N1303K counted along it
Cystic fibrosis transmembrane conductance regulator, sequence (P13569 as listed by the source): as the sequence (P13569 as listed by the source) above
Cystic fibrosis transmembrane conductance regulator (Homo sapiens), P13569 [M1101K], sequence (P13569 whole entry M1101K): as the sequence (P13569 whole entry S13F) above, with F13S, M1101K counted along it
Cystic fibrosis transmembrane conductance regulator (Homo sapiens), P13569 [R560T], sequence (P13569 whole entry R560T): as the sequence (P13569 whole entry S13F) above, with F13S, R560T counted along it

O=C(Nc1cc(-c2cccs2)nn1-c1nc2c(c(=O)[nH]1)CCCC2)C1(c2ccc(Cl)cc2)CCCC1
Activity [1]: Dose-Dependent Effect | EC50 [2]: 3.05 µM | Activity [3]: 250% | Activity [4]: 80% | Activity [5]: 84% | Activity [6]: -14% | Activity [7]: 50% | Activity [8]: Active | Activity [9]: Active | Activity [10]: 15% | Activity [11]: 15% | Activity [12]: inactive | Activity [13]: Active | Activity [14]: Active | Activity [15]: Active | Activity [16]: Active | Activity [17]: Active | Activity [18]: Active | Activity [19]: Active | Activity [20]: Active | Activity [21]: Active | Activity [22]: inactive | Activity [23]: inactive | Activity [24]: inactive | Activity [25]: inactive | Activity [26]: Active | Activity [27]: Active | Activity [28]: Active

CC(C)(Oc1ccc(Cl)cc1)C(=O)Nc1cc(-c2cccs2)nn1-c1nc2c(c(=O)[nH]1)CCCC2
Activity [1]: Dose-Dependent Effect | EC50 [2]: 6.16 µM | Activity [3]: 250% | Activity [4]: 80% | inhibition [29]: inactive | Activity [7]: 50% | Activity [8]: Active | Activity [9]: Active | Activity [10]: 15% | Activity [11]: 15% | Activity [12]: inactive | Activity [13]: Active | Activity [14]: Active | Activity [15]: Active | Activity [16]: Active | Activity [17]: Active | Activity [18]: Active | Activity [19]: Active | Activity [20]: Active | Activity [21]: Active | Activity [22]: inactive | Activity [23]: inactive | Activity [24]: inactive | Activity [25]: inactive | Activity [26]: Active | Activity [27]: Active | Activity [28]: Active
